Laboratory results reported in ChEMBL document CHEMBL1134282 (J Med Chem, 2001).

How the values were obtained:
Cholinesterase = Cholinesterase (Homo sapiens, UniProt P06276); assay: In vitro inhibition of human plasma butyrylcholinesterase.; assay type: cell-free
Acetylcholinesterase = Acetylcholinesterase (Homo sapiens, UniProt P22303); assay: In vitro inhibition of human erythrocyte acetylcholinesterase.
Chain of Acetylcholinesterase (P22303 whole entry): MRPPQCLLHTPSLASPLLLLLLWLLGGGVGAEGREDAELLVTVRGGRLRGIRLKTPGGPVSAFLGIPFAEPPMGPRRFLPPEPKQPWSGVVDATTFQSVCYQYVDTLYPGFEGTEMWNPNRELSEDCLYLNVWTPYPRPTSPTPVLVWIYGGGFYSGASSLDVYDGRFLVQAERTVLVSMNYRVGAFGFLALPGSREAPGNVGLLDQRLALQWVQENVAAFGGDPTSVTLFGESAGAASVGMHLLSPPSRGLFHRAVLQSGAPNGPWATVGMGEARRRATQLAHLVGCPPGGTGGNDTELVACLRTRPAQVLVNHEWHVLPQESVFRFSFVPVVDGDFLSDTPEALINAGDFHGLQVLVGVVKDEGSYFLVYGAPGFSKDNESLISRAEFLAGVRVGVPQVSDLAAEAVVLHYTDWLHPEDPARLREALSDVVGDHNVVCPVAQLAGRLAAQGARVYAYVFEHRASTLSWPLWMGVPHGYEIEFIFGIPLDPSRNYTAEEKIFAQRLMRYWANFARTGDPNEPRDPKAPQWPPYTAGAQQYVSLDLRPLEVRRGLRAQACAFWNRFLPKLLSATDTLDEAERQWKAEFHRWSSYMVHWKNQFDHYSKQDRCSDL

Chain of Cholinesterase (P06276 whole entry): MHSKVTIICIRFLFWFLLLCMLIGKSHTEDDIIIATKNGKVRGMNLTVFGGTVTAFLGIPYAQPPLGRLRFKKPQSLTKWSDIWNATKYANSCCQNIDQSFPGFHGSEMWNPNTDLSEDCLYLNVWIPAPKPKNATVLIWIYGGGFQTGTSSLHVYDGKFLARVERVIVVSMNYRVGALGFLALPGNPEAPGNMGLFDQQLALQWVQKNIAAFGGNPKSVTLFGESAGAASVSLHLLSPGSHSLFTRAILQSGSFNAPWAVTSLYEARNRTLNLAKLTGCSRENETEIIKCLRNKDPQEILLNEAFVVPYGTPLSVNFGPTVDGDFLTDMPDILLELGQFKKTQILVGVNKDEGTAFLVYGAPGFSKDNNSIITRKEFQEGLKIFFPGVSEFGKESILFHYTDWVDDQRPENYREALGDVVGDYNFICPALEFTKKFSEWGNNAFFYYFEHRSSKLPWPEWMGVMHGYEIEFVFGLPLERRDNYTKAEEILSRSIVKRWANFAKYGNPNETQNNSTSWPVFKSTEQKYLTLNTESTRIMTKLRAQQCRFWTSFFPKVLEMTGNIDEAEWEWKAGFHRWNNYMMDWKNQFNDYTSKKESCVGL

Row | SMILES | IC50 (Cholinesterase) | IC50 (Acetylcholinesterase)
1 | CC(C)c1ccccc1NC(=O)Oc1ccc2c(c1)[C@]1(C)CCN(C)[C@@H]1N2C | 650 nM | 15 nM
2 | Cc1ccc(NC(=O)Oc2ccc3c(c2)[C@]2(C)CCN(C)[C@@H]2N3C)cc1C | 66 nM | 31 nM
3 | Cc1cc(C)cc(NC(=O)Oc2ccc3c(c2)[C@]2(C)CCN(C)[C@@H]2N3C)c1 | 798 nM | 78 nM
4 | Cc1cccc(NC(=O)Oc2ccc3c(c2)[C@]2(C)CCN(C)[C@@H]2N3C)c1 | 165 nM | 28 nM
5 | CN(C(=O)Oc1ccc2c(c1)[C@]1(C)CCN(C)[C@@H]1N2C)c1ccccc1 | > 10000 nM | 690 nM
6 | CN(C)Cc1cc2c(cc1OC(=O)Nc1ccccc1)[C@]1(C)CCN(C)[C@@H]1N2C | 3890 nM | 2500 nM
7 | Cc1cc2c(cc1OC(=O)Nc1ccccc1)[C@]1(C)CCN(C)[C@@H]1N2C | 5020 nM | 260 nM
8 | CNC(=O)Oc1cc2c(cc1C)N(C)[C@H]1N(C)CC[C@@]21C | 8530 nM | > 10000 nM
9 | CCc1cccc(CC)c1NC(=O)Oc1ccc2c(c1)[C@]1(C)CCN(C)[C@@H]1N2C | 1100 nM | 
10 | Cc1ccc(NC(=O)Oc2ccc3c(c2)[C@]2(C)CCN(C)[C@@H]2N3C)c(C)c1 |  | 14 nM
11 | Cc1cccc(NC(=O)Oc2ccc3c(c2)[C@]2(C)CCN(C)[C@@H]2N3C)c1C | 170 nM | 23 nM
12 | Cc1ccc(C)c(NC(=O)Oc2ccc3c(c2)[C@]2(C)CCN(C)[C@@H]2N3C)c1 | 490 nM | 26 nM
13 | Cc1cccc(C)c1NC(=O)Oc1ccc2c(c1)[C@]1(C)CCN(C)[C@@H]1N2C | 290 nM | 785 nM
14 | CCc1ccccc1NC(=O)Oc1ccc2c(c1)[C@]1(C)CCN(C)[C@@H]1N2C [ETHYLPHENSERINE] |  | 10 nM
15 | CN1CC[C@@]2(C)c3cc(OC(=O)Nc4ccccc4)ccc3N(C)[C@@H]12 [PHENSERINE] | 1560 nM | 
